From patent publication US9617267B2, “Compounds and methods for kinase modulation, and indications therefor” (Plexxikon Inc., priority 2009, dated 2017)
Like-named read-outs stand apart in the source and are kept apart here.

What was measured:
B-Raf [1] = biological target: B-Raf (Homo sapiens (Human), UniProt P15056); assay: B-Raf kinase activity biochemical assay (AlphaScreen, biotin-MEK1 phosphorylation); details: B-Raf
Outline: (§1)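 Biotin-MEK1 phosphorylation measured after 45 min kinase reaction at RT with 100 μM ATP final; compounds tested at 8 points from 0.1 mM DMSO stock.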

B-Raf [2] = assay: as above; details: for Biochemical activity ratio B/V600E: ratio of IC50 B-Raf / B-Raf V600E; for Biochemical activity ratio B/C: ratio of IC50 B-Raf / c-Raf-1
Outline: as §1

B-Raf V600E = B-Raf V600E (Homo sapiens (Human), UniProt P15056, V600E); assay: B-Raf V600E kinase activity biochemical assay (AlphaScreen, biotin-MEK1 phosphorylation); details: for IC50: B-Raf V600E; for Biochemical activity ratio V600E/C: ratio of IC50 B-Raf V600E / c-Raf-1
Outline: as §1

c-Raf-1 = c-Raf-1 (Homo sapiens, UniProt P04049); assay: c-Raf-1 kinase activity biochemical assay (AlphaScreen, biotin-MEK1 phosphorylation)
Outline: as §1

[3] = Relative solubility by turbidity threshold concentration in aqueous buffers (pH 1.5, 4.5, 6.8, 7.4); assay type: physicochemical; details: for turbidity threshold (L, M, H) 1.4: pH 1.4 [sic] (method: SGF pH 1.5); for turbidity threshold (L, M, H) 4.5: pH 4.5 (SIF); for turbidity threshold (L, M, H) 6.8: pH 6.8 (SIF); for turbidity threshold (L, M, H) 7.4: pH 7.4 (HEPES)
Outline: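 Solubility class (high >250 μM, moderate 31.3–250 μM, low <31.3 μM) comes from the concentration where absorbance reaches a 0.01 threshold, averaged across 490/535/650 nm. Samples were compound dilutions from DMSO stock, 1 μL into 99 μL buffer at pH 1.5, 4.5, 6.8 or 7.4.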

CYP1A2 = CYP1A2 (Homo sapiens (Human), UniProt P05177); assay: CYP enzyme inhibition, fluorescent substrate (CEC)
Outline: (§2)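 Ten-point 1:1 compound dilutions in NADPH-regenerating cofactor mix, pre-incubated 10 min at 37 °C before enzyme/substrate addition: CYP1A2 0.5 pmol with 5 μM CEC, 15 min, 409 ex/460 em; CYP2D6 1.5 pmol with 1.5 μM AMMC, 30 min, 409 ex/530 em. IC50 from fluorescent product vs concentration.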

CYP2C19 = CYP2C19 (Homo sapiens (Human), UniProt P33261); assay: CYP enzyme inhibition, fluorescent substrate (CEC)
Outline: (§3)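 IC50 values come from plotting product fluorescence against compound concentration; inhibition lowers formation of the fluorescent metabolite. Ten-point twofold dilutions in co-factor mix were held 10 minutes at 37 °C before the enzyme reaction, also run at 37 °C.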

CYP2C9 = CYP2C9 (Homo sapiens (Human), UniProt P11712); assay: CYP enzyme inhibition, fluorescent substrate (MFC)
Outline: as §3

CYP2D6 = CYP2D6 (Homo sapiens (Human), UniProt P10635); assay: CYP enzyme inhibition, fluorescent substrate (AMMC); assay type: in vitro ADME; details: read-out: Cyp IC50 2D6
Outline: as §2

CYP3A4(BFC) = CYP3A4(BFC) (Homo sapiens (Human), UniProt P08684); assay: CYP enzyme inhibition, fluorescent substrate BFC
Outline: as §3

CYP3A4(BQ) = CYP3A4(BQ) (Homo sapiens (Human), UniProt P08684); assay: CYP enzyme inhibition, fluorescent substrate BQ
Experimental: CYP (Cytochrome P450) enzymes are the major drug metabolizing enzymes present in the liver. The inhibition of CYP enzyme activity (IC50) for each of CYP1A2, CYP2C19, CYP2C9, CYP2D6, CYP3A4(BFC) and CYP3A4(BQ) is determined for compounds, where inhibition of metabolism of a known substrate leads to a decrease in the fluorescence of the metabolized product. The fluorescence of the product is monitored as a function of compound concentration.
Compounds are dissolved in dimethyl sulfoxide to a concentration of 100 mM. These are diluted 1 μL into 82 μL of acetonitrile. […] These are then serially diluted 1:1 (160 μL to 160 μL co-factor mix) for a total of 10 points. A 10 μL aliquot of this final mixture is dispensed into 384 well assay plates and incubated for 10 minutes at 37° C. […] Assay plates are incubated at 37° C. […] The signal versus compound concentration is used to determine the IC50. The enzymes and substrates for this assay are obtained from BD Biosciences.

[4] = read-out: Cyp IC50 2C19, CYP2C19, substrate CEC
[5] = read-out: Cyp IC50 3A4(BFC), CYP3A4, substrate BFC
[6] = read-out: Cyp IC50 3A4(BQ), CYP3A4, substrate BQ
[7] = read-out: Cyp IC50 2C9, CYP2C9, substrate MFC

CYP2C9, sequence (P11712 whole entry): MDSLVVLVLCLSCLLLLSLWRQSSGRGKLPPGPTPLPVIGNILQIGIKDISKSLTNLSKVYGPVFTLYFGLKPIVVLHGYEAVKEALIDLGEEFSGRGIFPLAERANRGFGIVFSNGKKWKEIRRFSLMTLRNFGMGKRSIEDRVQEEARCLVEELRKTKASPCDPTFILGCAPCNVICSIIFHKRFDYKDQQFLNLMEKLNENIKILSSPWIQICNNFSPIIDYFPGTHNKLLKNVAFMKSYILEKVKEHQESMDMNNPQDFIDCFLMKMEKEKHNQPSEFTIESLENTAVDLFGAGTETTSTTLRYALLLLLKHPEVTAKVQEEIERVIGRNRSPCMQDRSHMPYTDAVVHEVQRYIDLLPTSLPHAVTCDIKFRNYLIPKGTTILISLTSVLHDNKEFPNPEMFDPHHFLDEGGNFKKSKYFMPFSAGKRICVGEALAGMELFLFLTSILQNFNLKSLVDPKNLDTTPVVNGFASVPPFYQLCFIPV
CYP3A4(BFC), sequence (P08684 whole entry): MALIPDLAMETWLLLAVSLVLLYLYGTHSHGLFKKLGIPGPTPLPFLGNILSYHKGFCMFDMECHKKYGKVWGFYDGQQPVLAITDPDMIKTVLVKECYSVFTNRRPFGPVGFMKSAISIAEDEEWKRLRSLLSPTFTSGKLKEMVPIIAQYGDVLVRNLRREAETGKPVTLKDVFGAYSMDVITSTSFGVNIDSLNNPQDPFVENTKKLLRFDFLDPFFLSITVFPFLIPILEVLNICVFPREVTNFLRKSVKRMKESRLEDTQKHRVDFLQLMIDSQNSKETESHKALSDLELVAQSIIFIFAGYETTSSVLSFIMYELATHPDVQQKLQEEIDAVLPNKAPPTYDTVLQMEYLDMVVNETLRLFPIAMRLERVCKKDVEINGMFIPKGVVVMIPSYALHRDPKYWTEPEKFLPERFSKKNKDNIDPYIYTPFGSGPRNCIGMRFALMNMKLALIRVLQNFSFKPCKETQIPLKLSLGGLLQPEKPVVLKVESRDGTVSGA
CYP3A4(BQ), sequence (P08684 whole entry): as above
B-Raf (Homo sapiens (Human), UniProt P15056), sequence (P15056 whole entry): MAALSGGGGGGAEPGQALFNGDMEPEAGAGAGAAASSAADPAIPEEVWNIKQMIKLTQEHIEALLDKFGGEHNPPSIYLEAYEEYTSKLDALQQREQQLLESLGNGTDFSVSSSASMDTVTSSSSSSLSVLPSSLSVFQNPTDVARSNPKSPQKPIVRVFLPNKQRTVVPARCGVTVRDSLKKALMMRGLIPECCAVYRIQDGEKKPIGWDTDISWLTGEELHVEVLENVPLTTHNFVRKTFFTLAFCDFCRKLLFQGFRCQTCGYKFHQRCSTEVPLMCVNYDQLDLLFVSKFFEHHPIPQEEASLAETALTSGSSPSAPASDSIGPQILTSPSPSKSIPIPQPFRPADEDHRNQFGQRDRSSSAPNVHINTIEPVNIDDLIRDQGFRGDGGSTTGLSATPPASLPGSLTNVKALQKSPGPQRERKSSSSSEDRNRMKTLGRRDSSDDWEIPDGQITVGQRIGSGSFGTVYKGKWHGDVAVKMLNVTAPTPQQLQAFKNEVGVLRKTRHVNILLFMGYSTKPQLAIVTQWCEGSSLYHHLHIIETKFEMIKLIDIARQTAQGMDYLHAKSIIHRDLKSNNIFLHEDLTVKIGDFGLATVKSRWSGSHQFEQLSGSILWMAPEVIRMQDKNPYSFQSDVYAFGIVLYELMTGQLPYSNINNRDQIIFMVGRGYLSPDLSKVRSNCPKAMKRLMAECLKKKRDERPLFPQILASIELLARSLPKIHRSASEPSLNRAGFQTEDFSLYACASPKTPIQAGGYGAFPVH
B-Raf V600E, sequence (P15056 whole entry V600E): as the sequence (P15056 whole entry) above, with V600E counted along it
CYP1A2, sequence (P05177 whole entry): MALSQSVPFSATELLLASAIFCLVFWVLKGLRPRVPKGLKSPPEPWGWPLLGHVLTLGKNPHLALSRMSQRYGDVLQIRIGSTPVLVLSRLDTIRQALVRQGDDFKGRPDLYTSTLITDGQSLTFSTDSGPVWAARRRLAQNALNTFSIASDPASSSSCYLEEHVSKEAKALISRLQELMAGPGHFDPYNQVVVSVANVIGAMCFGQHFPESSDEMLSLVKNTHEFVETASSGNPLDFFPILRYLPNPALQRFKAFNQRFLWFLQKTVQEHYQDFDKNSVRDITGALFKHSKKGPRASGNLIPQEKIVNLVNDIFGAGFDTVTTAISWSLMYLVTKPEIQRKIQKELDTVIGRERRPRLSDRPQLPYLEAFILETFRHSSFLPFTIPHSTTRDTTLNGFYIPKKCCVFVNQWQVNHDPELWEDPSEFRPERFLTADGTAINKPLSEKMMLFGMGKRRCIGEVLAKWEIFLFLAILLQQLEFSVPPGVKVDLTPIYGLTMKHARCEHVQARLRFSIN
c-Raf-1, sequence (P04049 whole entry, looked up): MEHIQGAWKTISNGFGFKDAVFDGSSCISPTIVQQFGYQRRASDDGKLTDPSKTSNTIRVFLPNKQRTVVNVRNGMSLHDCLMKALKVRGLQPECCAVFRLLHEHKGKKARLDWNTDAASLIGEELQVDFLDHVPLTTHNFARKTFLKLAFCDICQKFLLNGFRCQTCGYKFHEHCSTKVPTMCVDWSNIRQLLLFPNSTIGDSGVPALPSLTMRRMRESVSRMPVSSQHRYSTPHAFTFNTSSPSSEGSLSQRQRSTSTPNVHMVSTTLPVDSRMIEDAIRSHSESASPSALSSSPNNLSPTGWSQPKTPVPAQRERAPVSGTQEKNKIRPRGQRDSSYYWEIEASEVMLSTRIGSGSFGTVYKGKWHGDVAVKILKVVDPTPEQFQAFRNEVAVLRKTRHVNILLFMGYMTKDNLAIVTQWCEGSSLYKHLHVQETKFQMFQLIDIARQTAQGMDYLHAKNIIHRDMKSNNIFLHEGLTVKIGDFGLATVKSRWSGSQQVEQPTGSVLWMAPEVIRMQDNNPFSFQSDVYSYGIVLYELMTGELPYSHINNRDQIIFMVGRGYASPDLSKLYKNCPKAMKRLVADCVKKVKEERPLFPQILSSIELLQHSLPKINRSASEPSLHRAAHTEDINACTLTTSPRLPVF
CYP2D6, sequence (P10635 whole entry): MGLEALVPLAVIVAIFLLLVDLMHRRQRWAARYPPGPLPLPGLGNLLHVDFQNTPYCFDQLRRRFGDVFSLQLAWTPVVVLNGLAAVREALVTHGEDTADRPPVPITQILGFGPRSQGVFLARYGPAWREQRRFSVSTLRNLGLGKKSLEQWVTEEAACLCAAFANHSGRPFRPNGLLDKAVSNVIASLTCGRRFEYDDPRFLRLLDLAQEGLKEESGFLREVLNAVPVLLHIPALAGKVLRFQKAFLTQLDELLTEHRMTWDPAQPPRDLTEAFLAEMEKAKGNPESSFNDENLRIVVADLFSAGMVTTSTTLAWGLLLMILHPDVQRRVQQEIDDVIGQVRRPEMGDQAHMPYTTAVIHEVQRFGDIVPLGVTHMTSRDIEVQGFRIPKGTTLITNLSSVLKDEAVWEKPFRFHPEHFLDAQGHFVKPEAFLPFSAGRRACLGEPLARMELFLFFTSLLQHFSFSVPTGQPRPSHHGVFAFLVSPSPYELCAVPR
CYP2C19, sequence (P33261 whole entry): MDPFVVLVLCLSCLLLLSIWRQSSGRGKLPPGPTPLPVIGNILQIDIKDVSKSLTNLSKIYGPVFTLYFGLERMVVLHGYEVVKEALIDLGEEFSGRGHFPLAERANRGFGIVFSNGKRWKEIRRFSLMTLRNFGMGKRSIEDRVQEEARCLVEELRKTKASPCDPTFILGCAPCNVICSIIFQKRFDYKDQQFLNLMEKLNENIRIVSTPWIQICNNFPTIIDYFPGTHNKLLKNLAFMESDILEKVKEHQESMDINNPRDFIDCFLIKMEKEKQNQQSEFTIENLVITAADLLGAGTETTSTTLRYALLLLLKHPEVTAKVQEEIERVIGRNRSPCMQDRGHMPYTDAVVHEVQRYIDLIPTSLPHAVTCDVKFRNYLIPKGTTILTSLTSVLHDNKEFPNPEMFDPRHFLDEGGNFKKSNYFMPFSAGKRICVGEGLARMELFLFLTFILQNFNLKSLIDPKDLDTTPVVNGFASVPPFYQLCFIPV

Structure (SMILES) | IC50 (B-Raf [1]) | Biochemical activity ratio B/V600E (B-Raf [2]) | Biochemical activity ratio B/C (B-Raf [2]) | IC50 (B-Raf V600E) | Biochemical activity ratio V600E/C (B-Raf V600E) | IC50 (c-Raf-1) | turbidity threshold (L, M, H) 1.4 [3] | turbidity threshold (L, M, H) 4.5 [3] | turbidity threshold (L, M, H) 6.8 [3] | turbidity threshold (L, M, H) 7.4 [3] | IC50 (CYP1A2; human, 15 min) | IC50 (CYP2C19; [4]) | IC50 (CYP2C9) | IC50 (CYP2D6) | IC50 (CYP3A4(BFC); [5]) | IC50 (CYP3A4(BQ); [6]) | IC50 (CYP2C9; [7]) | also measured
Cc1ncnc2[nH]cc(C(=O)c3c(F)ccc(NS(=O)(=O)CC(C)C)c3F)c12 [P-1003, 2-Methyl-propane-1-sulfonic acid [2,4-difluoro-3-(4-methyl-7H-pyrrolo[2,3-d]pyrimidine-5-carbonyl)-phenyl]-amide] | > 0.1 µM | >10 | >10 | < 0.1 µM | 0.1-10 | < 0.1 µM | H (high solubility if the threshold concentration is >250 μm) | M (moderate solubility if the threshold concentration is 31.3 μM to 250 μM) | M (moderate solubility if the threshold concentration is 31.3 μM to 250 μM) | M (moderate solubility if the threshold concentration is 31.3 μM to 250 μM) | > 10 µM | > 10 µM | 5 to 10 µM | > 10 µM | > 10 µM |  |  | IC50 (CYP3A4(BQ)): 5 to 10 µM
COc1ncnc2[nH]cc(C(=O)c3c(F)ccc(NS(=O)(=O)CC(C)C)c3F)c12 [P-1004, 2-Methyl-propane-1-sulfonic acid [2,4-difluoro-3-(4-methoxy-7H-pyrrolo[2,3-d]pyrimidine-5-carbonyl)-phenyl]-amide] | > 0.1 µM | >10 | >10 | < 0.1 µM | 0.1-10 | < 0.1 µM | H (high solubility if the threshold concentration is >250 μm) | H (high solubility if the threshold concentration is >250 μm) | H (high solubility if the threshold concentration is >250 μm) | H (high solubility if the threshold concentration is >250 μm) | > 10 µM | > 10 µM | 5 to 10 µM | > 10 µM | > 10 µM | > 10 µM |  | 
CCCc1ccc(S(=O)(=O)Nc2ccc(F)c(C(=O)c3c[nH]c4ncnc(OC)c34)c2F)cc1 [P-1005, N-[2,4-Difluoro-3-(4-methoxy-7H-pyrrolo[2,3-d]pyrimidine-5-carbonyl)-phenyl]-4-propyl-benzenesulfonamide] | > 0.1 µM | 0.1-10 | 0.1-10 | > 0.1 µM | >10 | < 0.1 µM | H (high solubility if the threshold concentration is >250 μm) | L (low solubility if the threshold concentration is <31.3 μM) | L (low solubility if the threshold concentration is <31.3 μM) | L (low solubility if the threshold concentration is <31.3 μM) | > 10 µM |  |  | > 10 µM |  | > 10 µM | > 10 µM | IC50 (CYP2C19): 5 to 10 µM; IC50 (CYP3A4(BFC)): 5 to 10 µM
CCOc1ncnc2[nH]cc(C(=O)c3c(F)ccc(NS(=O)(=O)c4ccc(C(F)(F)F)cc4)c3F)c12 [P-1006, N-[3-(4-Ethoxy-7H-pyrrolo[2,3-d]pyrimidine-5-carbonyl)-2,4-difluoro-phenyl]-4-trifluoromethyl-benzenesulfonamide] | > 0.1 µM | 0.1-10 | 0.1-10 | > 0.1 µM | >10 | < 0.1 µM | L (low solubility if the threshold concentration is <31.3 μM) | L (low solubility if the threshold concentration is <31.3 μM) | L (low solubility if the threshold concentration is <31.3 μM) | H (high solubility if the threshold concentration is >250 μm) |  | > 10 µM | 5 to 10 µM | > 10 µM | < 5 µM | > 10 µM |  | IC50 (CYP1A2; read-out: Cyp IC50 1A2, CYP1A2, substrate CEC): > 10 µM
CCCc1ccc(S(=O)(=O)Nc2ccc(F)c(C(=O)c3c[nH]c4ncnc(C)c34)c2F)cc1 [P-1007, N-[2,4-Difluoro-3-(4-methyl-7H-pyrrolo[2,3-d]pyrimidine-5-carbonyl)-phenyl]-4-propyl-benzenesulfonamide] | < 0.1 µM | 0.1-10 | 0.1-10 | > 0.1 µM | >10 | < 0.1 µM | L (low solubility if the threshold concentration is <31.3 μM) | L (low solubility if the threshold concentration is <31.3 μM) | L (low solubility if the threshold concentration is <31.3 μM) | L (low solubility if the threshold concentration is <31.3 μM) | > 10 µM | > 10 µM |  | > 10 µM |  |  | > 10 µM | IC50 (CYP3A4(BFC)): 5 to 10 µM; IC50 (CYP3A4(BQ)): 5 to 10 µM
CCc1ccc(S(=O)(=O)Nc2ccc(F)c(C(=O)c3c[nH]c4ncnc(OC)c34)c2F)cc1 [P-1008, N-[2,4-Difluoro-3-(4-methoxy-7H-pyrrolo[2,3-d]pyrimidine-5-carbonyl)-phenyl]-4-ethyl-benzenesulfonamide] | > 0.1 µM | 0.1-10 | 0.1-10 | > 0.1 µM | 0.1-10 | > 0.1 µM | M (moderate solubility if the threshold concentration is 31.3 μM to 250 μM) | M (moderate solubility if the threshold concentration is 31.3 μM to 250 μM) | L (low solubility if the threshold concentration is <31.3 μM) | M (moderate solubility if the threshold concentration is 31.3 μM to 250 μM) | > 10 µM | > 10 µM | 5 to 10 µM | > 10 µM | > 10 µM | > 10 µM |  | 
Cc1ncnc2[nH]cc(C(=O)c3c(F)ccc(NS(=O)(=O)c4ccc(C(C)C)cc4)c3F)c12 [P-1009, N-[2,4-Difluoro-3-(4-methyl-7H-pyrrolo[2,3-d]pyrimidine-5-carbonyl)-phenyl]-4-isopropyl-benzenesulfonamide] | > 0.1 µM | 0.1-10 | >10 | > 0.1 µM | >10 | < 0.1 µM | H (high solubility if the threshold concentration is >250 μm) | L (low solubility if the threshold concentration is <31.3 μM) | L (low solubility if the threshold concentration is <31.3 μM) | M (moderate solubility if the threshold concentration is 31.3 μM to 250 μM) | > 10 µM |  |  | > 10 µM | < 5 µM | > 10 µM | < 5 µM | IC50 (CYP2C19): 5 to 10 µM
